Counter-ions that a name gives are not always drawn.
Legend:
[1] = tested on: bacterial strains that express KPC β-lactamases; experiment: Standard BLI potentiation MIC / synergy MIC assays, strains expressing KPC β-lactamases; assay type: cell-based; details: in combination with a β-lactam; comparator Avibactam
Procedure: (§1) The experimental protocol was performed according to Clinical and Laboratory Standards Institute (CLSI) guidelines with modifications as described below (CLSI guidelines can be derived from the CLSI document M07-A9 published in January 2012: “Methods for Dilution Antimicrobial Susceptibility Tests for Bacteria That Grow Aerobically; Approved Standard-Ninth Edition”).
(§2) To prepare for MIC testing, frozen glycerol stocks of clinical isolates (Klebsiella pneumoniae, Eschericia coli, Enterobacter spp, Citrobacter spp, or Pseudomonas aeruginosa) were used to streak for isolated colonies on rich, non-selective, tryptic soy agar containing 5% sheep's blood (TSAB). Frozen glycerol stocks of laboratory engineered, isogenic E. coli strains, which contain cloned β-lactamase expressing plasmids were used to streak for isolated colonies on rich, selective LB agar supplemented with 25 μg/mL tetracycline to maintain the plasmid. All strains were incubated at 37° C. for 18-24 hrs.
(§3) On the day of testing, primary cultures were started by scraping off 5-10 colonies from the TSAB plates containing clinical strains or the tetracycline supplemented LB plates containing engineered strains. The clinical strain material was suspended in ˜5 mL of cation adjusted Mueller Hinton Broth (CAMHB) in 14 mL culture tubes. The engineered strain material was suspended in CAMHB (supplemented with 25 μg/mL tetracycline) in 14 mL culture tubes. All strains were incubated at 37° C. with aeration (200 rpm) for ˜2 hrs until the optical density at 600 nm (OD600) was >0.1.
(§4) The two compound components of the assay were each diluted in CAMHB and added to the 96-well broth microdilution assay plates. 50 μL of the β-lactam was added to each well of the assay plate in 2-fold dilutions with final concentrations ranging from 128 to 0.13 μg/mL. 25 μL of the BLI compound was added to all wells in the broth microdilution plates at a final concentration of 4 μg/mL. Inoculum cultures were prepared by standardizing the primary cultures to OD600=0.1 and then adding 20 μL of the adjusted primary culture per 1 mL CAMHB for clinical strains or CAMHB (supplemented with tetracycline at 100 μg/mL) for engineered strains, so that the final inoculum density was ˜10^5 colony forming units per milliliter. Diluted inoculum cultures were used to inoculate 25 μl, per well in 96-well broth microdilution assay plates. The final volume of each well was 100 μL and contained a β-lactam at different concentrations, a BLlcompound at 4 μg/mL concentration, the bacterial culture at an OD600 of approximately 0.001 and when necessary tetracycline at 25 μg/mL.
(§5) Plates were incubated for 18-20 hours at 37° C. with aeration (200 rpm). Following incubation, growth was confirmed visually placing plates over a viewing apparatus (stand with a mirror underneath) and then OD600 was measured using a SpectraMax 340PC384 plate reader (Molecular Devices, Sunnyvale, Calif.). Growth was defined as turbidity that could be detected with the naked eye or achieving minimum OD600 of 0.1. MIC values were defined as the lowest concentration producing no visible turbidity.
(§6) The synergy MIC (sMIC) assay determines the concentration of the BLI required to potentiate the activity of a fixed concentration of a β-lactam antibiotic against β-lactamase producing bacterial strains. The experimental protocol was performed according to Clinical and Laboratory Standards Institute (CLSI) guidelines with modifications as described below (CLSI guidelines can be derived from the CLSI document M07-A9 published in January 2012: “Methods for Dilution Antimicrobial Susceptibility Tests for Bacteria That Grow Aerobically; Approved Standard-Ninth Edition”). […]

[2] = tested on: bacterial strains that express the class D cephalosporinase OXA-15; experiment: Standard BLI potentiation MIC / synergy MIC assays, strains expressing OXA-15; assay type: cell-based, E. coli; details: in combination with a β-lactam; comparator Avibactam (CCC)
Procedure: as §1, §2, §3, §4, §5, §6

O=C1N2C[C@@H](CC[C@H]2c2nnc(CCCCNC3CCNCC3)o2)N1OS(=O)(=O)O [Compound 772, (2S,5R)-7-oxo-2-(5-(4-(piperidin-4-ylamino)butyl)-1,3,4-oxadiazol-2-yl)-1,6-diazabicyclo[3.2.1]octan-6-yl hydrogen sulfate]
activity and/or spectrum of activity against bacterial strains that express KPC β-lactamases, compared with Avibactam [1]: more active than Avibactam for at least one, bacterial strain that expresses KPC β-lactamase and/or show a better spectrum of activity
activity against bacterial strains that express the class D cephalosporinase OXA-15, compared with Avibactam [2]: more active than Avibactam

NC(=O)c1nnc([C@@H]2CC[C@@H]3CN2C(=O)N3OS(=O)(=O)O)o1 [Compound 706, (2S,5R)-2-(5-carbamoyl-1,3,4-oxadiazol-2-yl)-7-oxo-1,6-diaza-bicyclo[3.2.1]octan-6-yl hydrogen sulfate]
activity and/or spectrum of activity against bacterial strains that express KPC β-lactamases, compared with Avibactam [1]: more active than Avibactam for at least one, bacterial strain that expresses KPC β-lactamase and/or show a better spectrum of activity
activity against bacterial strains that express the class D cephalosporinase OXA-15, compared with Avibactam [2]: more active than Avibactam

O=C1N2C[C@@H](CC[C@H]2c2nnc(CCN3CCNCC3)o2)N1OS(=O)(=O)O [Compound 776, (2S,5R)-7-oxo-2-(5-(2-(piperazin-1-ybethyl)-1,3,4-oxadiazol-2-yl)-1,6-diazabicyclo[3.2.1]octan-6-yl hydrogen sulfate]
activity and/or spectrum of activity against bacterial strains that express KPC β-lactamases, compared with Avibactam [1]: more active than Avibactam for at least one, bacterial strain that expresses KPC β-lactamase and/or show a better spectrum of activity
activity against bacterial strains that express the class D cephalosporinase OXA-15, compared with Avibactam [2]: more active than Avibactam

N[C@H]1C[C@@H](NCc2nnc([C@@H]3CC[C@@H]4CN3C(=O)N4OS(=O)(=O)O)o2)C1 [Compound 756, (2S,5R)-2-(5-((((1s,3R)-3-aminocyclobutyl)amino)methyl)-1,3,4-oxadiazol-2-yl)-7-oxo-1,6-diazabicyclo[3.2.1]octan-6-yl hydrogen sulfate]
activity and/or spectrum of activity against bacterial strains that express KPC β-lactamases, compared with Avibactam [1]: more active than Avibactam for at least one, bacterial strain that expresses KPC β-lactamase and/or show a better spectrum of activity
activity against bacterial strains that express the class D cephalosporinase OXA-15, compared with Avibactam [2]: more active than Avibactam

N=C(N)NCC(O)Cc1nnc([C@@H]2CC[C@@H]3CN2C(=O)N3OS(=O)(=O)O)o1 (stereo partly drawn) [Compound 730, (2S,5R)-2-(5-(3-guanidino-2-hydroxypropyl)-1,3,4-oxadiazol-2-yl)-7-oxo-1,6-diazabicyclo[3.2.1]octan-6-yl hydrogen sulfate]
activity and/or spectrum of activity against bacterial strains that express KPC β-lactamases, compared with Avibactam [1]: more active than Avibactam for at least one, bacterial strain that expresses KPC β-lactamase and/or show a better spectrum of activity
activity against bacterial strains that express the class D cephalosporinase OXA-15, compared with Avibactam [2]: more active than Avibactam

NC1(Cc2nnc([C@@H]3CC[C@@H]4CN3C(=O)N4OS(=O)(=O)O)o2)CC1 [Compound 724, (2S,5R)-2-(5-((1-aminocyclopropyl)methyl)-1,3,4-oxadiazol-2-yl)-7-oxo-1,6-diazabicyclo[3.2.1]octan-6-yl hydrogen sulfate]
activity and/or spectrum of activity against bacterial strains that express KPC β-lactamases, compared with Avibactam [1]: more active than Avibactam for at least one, bacterial strain that expresses KPC β-lactamase and/or show a better spectrum of activity
activity against bacterial strains that express the class D cephalosporinase OXA-15, compared with Avibactam [2]: more active than Avibactam

O=C1N2C[C@@H](CC[C@H]2c2nnc(CN[C@@H]3CCNC3)o2)N1OS(=O)(=O)O [Compound 766, (2S,5R)-7-oxo-2-(5-(((R)-pyrrolidin-3-ylamino)methyl)-1,3,4-oxadiazol-2-yl)-1,6-diazabicyclo[3.2.1]octan-6-yl hydrogen sulfate]
activity and/or spectrum of activity against bacterial strains that express KPC β-lactamases, compared with Avibactam [1]: more active than Avibactam for at least one, bacterial strain that expresses KPC β-lactamase and/or show a better spectrum of activity
activity against bacterial strains that express the class D cephalosporinase OXA-15, compared with Avibactam [2]: more active than Avibactam

N=C1NCC(c2nnc([C@@H]3CC[C@@H]4CN3C(=O)N4OS(=O)(=O)O)o2)N1 (stereo partly drawn) [Compound 767, (2S,5R)-2-(5-(2-iminoimidazolidin-4-yl)-1,3,4-oxadiazol-2-yl)-7-oxo-1,6-diazabicyclo[3.2.1]octan-6-yl hydrogen sulfate]
activity and/or spectrum of activity against bacterial strains that express KPC β-lactamases, compared with Avibactam [1]: more active than Avibactam for at least one, bacterial strain that expresses KPC β-lactamase and/or show a better spectrum of activity
activity against bacterial strains that express the class D cephalosporinase OXA-15, compared with Avibactam [2]: more active than Avibactam

CNCCc1nnc([C@@H]2CC[C@@H]3CN2C(=O)N3OS(=O)(=O)O)o1 [Compound 722, (2S,5R)-2-(5-(2-(methylamino)ethyl)-1,3,4-oxadiazol-2-yl)-7-oxo-1,6-diazabicyclo[3.2.1]octan-6-yl hydrogen sulfate]
activity and/or spectrum of activity against bacterial strains that express KPC β-lactamases, compared with Avibactam [1]: more active than Avibactam for at least one, bacterial strain that expresses KPC β-lactamase and/or show a better spectrum of activity
activity against bacterial strains that express the class D cephalosporinase OXA-15, compared with Avibactam [2]: more active than Avibactam

N=C(N)NC[C@@H](O)c1nnc([C@@H]2CC[C@@H]3CN2C(=O)N3OS(=O)(=O)O)o1 [Compound 731, (2S,5R)-2-(5-((R)-2-guanidino-1-hydroxyethyl)-1,3,4-oxadiazol-2-yl)-7-oxo-1,6-diazabicyclo[3.2.1]octan-6-yl hydrogen sulfate]
activity and/or spectrum of activity against bacterial strains that express KPC β-lactamases, compared with Avibactam [1]: more active than Avibactam for at least one, bacterial strain that expresses KPC β-lactamase and/or show a better spectrum of activity
activity against bacterial strains that express the class D cephalosporinase OXA-15, compared with Avibactam [2]: more active than Avibactam

N[C@H]1C[C@H](c2nnc([C@@H]3CC[C@@H]4CN3C(=O)N4OS(=O)(=O)O)s2)C1 [Compound 783, (2S,5R)-2-(5-((1r,3S)-3-aminocyclobutyl)-1,3,4-thiadiazol-2-yl)-7-oxo-1,6-diazabicyclo[3.2.1]octan-6-yl hydrogen sulfate]
activity and/or spectrum of activity against bacterial strains that express KPC β-lactamases, compared with Avibactam [1]: more active than Avibactam for at least one, bacterial strain that expresses KPC β-lactamase and/or show a better spectrum of activity
activity against bacterial strains that express the class D cephalosporinase OXA-15, compared with Avibactam [2]: more active than Avibactam

N[C@@H]1CN[C@@H](c2nnc([C@@H]3CC[C@@H]4CN3C(=O)N4OS(=O)(=O)O)o2)C1 [Compound 763, (2S,5R)-2-(5-((2R,4S)-4-aminopyrrolidin-2-yl)-1,3,4-oxadiazol-2-yl)-7-oxo-1,6-diazabicyclo[3.2.1]octan-6-yl hydrogen sulfate]
activity and/or spectrum of activity against bacterial strains that express KPC β-lactamases, compared with Avibactam [1]: more active than Avibactam for at least one, bacterial strain that expresses KPC β-lactamase and/or show a better spectrum of activity
activity against bacterial strains that express the class D cephalosporinase OXA-15, compared with Avibactam [2]: more active than Avibactam

N[C@H]1CN[C@H](c2nnc([C@@H]3CC[C@@H]4CN3C(=O)N4OS(=O)(=O)O)o2)C1 [Compound 762, (2S,5R)-2-(5-((2S,4R)-4-aminopyrrolidin-2-yl)-1,3,4-oxadiazol-2-yl)-7-oxo-1,6-diazabicyclo[3.2.1]octan-6-yl hydrogen sulfate]
activity and/or spectrum of activity against bacterial strains that express KPC β-lactamases, compared with Avibactam [1]: more active than Avibactam for at least one, bacterial strain that expresses KPC β-lactamase and/or show a better spectrum of activity
activity against bacterial strains that express the class D cephalosporinase OXA-15, compared with Avibactam [2]: more active than Avibactam
